Reference: patent US7033812B2, “β-secretase and modulation of β-secretase activity” (Scios Inc., priority 1999, dated 2006)

Test system: neutral β-secretase activity
Assay: β-secretase ELISA (βNTF) with partially purified APP/β-secretase mixture, pH 7.0
Format: biochemical, human

Row | detectable levels of β-secretase activity (cardiolipin 0.01–100 μM in assay buffer, pH 7.0, 37° C. 16 hours, FIG. 4A) | Compound | β-secretase inhibition (pH 7)
1 | dose-dependent increase | cardiolipin | 
2 |  | NCCc1ccc(S(=O)(=O)F)cc1 [AEBSF] | dose-dependent β-secretase inhibition
